In patent US5449750A, “Prolyl endopeptidase inhibitors SNA-115 and SNA-115T, and process for the production and productive strain thereof” (Snow Brand Milk Products Co., Ltd., priority 1991, dated 1995):
Several values for one entry are separate records, joined by “and”; a condition that tells them apart may be missing. Identical values can stand only once. Like-named read-outs stand apart in the source and are kept apart here. Where a SMILES comes first, the peptide text is derived from it. Bridges are numbered along the chain shown (N, C = ends). Roman numbers before positions name the chains, in order.

Legend:
[1] = test system: Bacillus subtilis rec^+; assay: Antimicrobial activity, paper disc method; format: cell-based; conditions: 40 μg per disc
[2] = molecular target: prolyl endopeptidase derived from Flavobacterium (Elizabethkingia meningoseptica, UniProt P27028); assay: Prolyl endopeptidase inhibitory activity (Z-Gly-Pro-pNA substrate, p-nitroaniline at 410 nm); format: biochemical; conditions: for IC50: 50% inhibitory concentration (IC50), 0.2 mM Z-Gly-Pro-pNA as substrate, sample in methanol, 30° C., pH 7.0; for inhibitory pattern / Ki: Dixon plot; for Ki: inhibitor constant Ki, various concentrations of substrate and inhibitor
Chain of prolyl endopeptidase derived from Flavobacterium (P27028 21-705): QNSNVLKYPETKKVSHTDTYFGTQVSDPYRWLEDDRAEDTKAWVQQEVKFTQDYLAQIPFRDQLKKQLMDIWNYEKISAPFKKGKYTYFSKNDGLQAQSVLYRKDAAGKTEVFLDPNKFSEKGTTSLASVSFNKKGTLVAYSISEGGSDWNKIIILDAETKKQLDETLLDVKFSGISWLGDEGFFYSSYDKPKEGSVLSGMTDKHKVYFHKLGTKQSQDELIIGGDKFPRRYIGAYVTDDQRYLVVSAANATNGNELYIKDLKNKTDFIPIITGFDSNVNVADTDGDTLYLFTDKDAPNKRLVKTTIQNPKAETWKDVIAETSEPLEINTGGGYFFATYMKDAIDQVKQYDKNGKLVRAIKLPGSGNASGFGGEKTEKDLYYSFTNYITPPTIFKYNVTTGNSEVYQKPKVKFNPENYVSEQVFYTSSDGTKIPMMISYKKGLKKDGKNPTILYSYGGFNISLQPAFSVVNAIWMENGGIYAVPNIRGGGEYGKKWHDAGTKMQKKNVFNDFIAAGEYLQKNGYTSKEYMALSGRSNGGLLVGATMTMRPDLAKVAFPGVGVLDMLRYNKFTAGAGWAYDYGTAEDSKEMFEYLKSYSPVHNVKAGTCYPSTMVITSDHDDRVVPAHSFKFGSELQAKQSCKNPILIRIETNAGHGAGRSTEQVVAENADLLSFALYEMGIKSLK

[3] = test system: Pseudomonas aeruginosa N-10 (L-form); assay: Antimicrobial activity, paper disc method; format: cell-based; conditions: 40 μg per disc
[4] = test system: Salmonella typhimurium SL 1102; assay: Antimicrobial activity, paper disc method; format: cell-based; conditions: 40 μg per disc
Description: (§1) The antimicrobial activity of SNA-115 was determined in 24 bacteria, fungi, and yeasts by paper disc method. SNA-115 was placed on paper discs at an amount of 40 μg each and the disc was placed on the test plates. The test plates were cultured under optimal conditions of the test microorganisms.
The antimicrobial activity of SNA-115T compound was determined in 9 bacteria and fungi by paper disc method in an agar plate. SNA-115T was placed on paper discs at an amount of 40 μg each and the disc was placed on the test plates. The test plates were cultured under optimal conditions of the rest microorganisms. The inhibition zones of SNA-115 were also shown for the comparison.

[5] = test system: Mycobacterium phlei IFO 3158; assay: Antimicrobial activity, paper disc method; format: cell-based; conditions: 40 μg per disc
[6] = test system: Botrytis cinerea IFO 5365; assay: Antimicrobial activity, paper disc method; format: cell-based; conditions: 40 μg per disc
[7] = test system: Xanthomonas citri IFO 3781; assay: Antimicrobial activity, paper disc method; format: cell-based; conditions: 40 μg per disc
[8] = test system: Xanthomonas oryzae IFO 3312; format: cell-based
[9] = test system: Bacillus subtilis rec^-; assay: Antimicrobial activity, paper disc method; format: cell-based; conditions: 40 μg per disc
[10] = test system: Pyricularia oryzae IFO 5994; format: cell-based
[11] = Acute toxicity (intravenous injection)
[12] = test system: Pseudomonas aeruginosa IFO 13130; assay: Antimicrobial activity, paper disc method; format: cell-based; conditions: 40 μg per disc
Description: as §1

[13] = test system: Schizosaccharomyces Pombe IFO 0638; assay: Antimicrobial activity, paper disc method; format: cell-based; conditions: 40 μg per disc
Description: as §1

[14] = test system: Escherichia coli multi resistant; assay: Antimicrobial activity, paper disc method; format: cell-based; conditions: 40 μg per disc
Description: as §1

[15] = test system: Micrococcus luteus IFO 12708; assay: Antimicrobial activity, paper disc method; format: cell-based; conditions: 40 μg per disc
Description: as §1

[16] = test system: Candida albicans IFO 1594; assay: Antimicrobial activity, paper disc method; format: cell-based; conditions: 40 μg per disc
Description: as §1

[17] = test system: Fusarium oxysporum IFO 9761; assay: Antimicrobial activity, paper disc method; format: cell-based; conditions: 40 μg per disc
Description: as §1

[18] = test system: Staphylococcus aureus IFO 12732; assay: Antimicrobial activity, paper disc method; format: cell-based; conditions: 40 μg per disc
Description: as §1

[19] = test system: Salmonella typhimurium TV 119; assay: Antimicrobial activity, paper disc method; format: cell-based; conditions: 40 μg per disc
Description: as §1

[20] = test system: Alternaria mali IFO 8984; assay: Antimicrobial activity, paper disc method; format: cell-based; conditions: 40 μg per disc
Description: as §1

[21] = test system: Colletotrichum lagenarium IFO 7513; assay: Antimicrobial activity, paper disc method; format: cell-based; conditions: 40 μg per disc
Description: as §1

[22] = test system: Trichophyton rubrum IFO 6203; assay: Antimicrobial activity, paper disc method; format: cell-based; conditions: 40 μg per disc
Description: as §1

[23] = test system: Chlorella vulgaris; assay: Antimicrobial activity, paper disc method; format: cell-based; conditions: 40 μg per disc
Description: as §1

[24] = test system: Escherichia coli BE 1186; assay: Antimicrobial activity, paper disc method; format: cell-based; conditions: 40 μg per disc
Description: as §1

[25] = test system: Staphylococcus aureus multi resistant; assay: Antimicrobial activity, paper disc method; format: cell-based; conditions: 40 μg per disc
Description: as §1

[26] = test system: Escherichia coli AB 1157; assay: Antimicrobial activity, paper disc method; format: cell-based; conditions: 40 μg per disc
Description: as §1

[27] = test system: mouse leukemia L1210 cells; assay: Cytotoxicity, cell proliferation (MTT); format: cell-based; conditions: 72 hrs culture
Description: (§2) Human epidermoid carcinoma (oral) KB cells and mouse leukemia L1210 cells each were placed in a 96 wells microplate (2,000 cells/100 μl/well). The former cells were cultured in DMEM medium and the latter cells were cultured in RPMI 1640 medium, each containing 5% FCS. They were cultured in the presence of 5% CO2 at 37° C. for 24 hrs. Five μl each of a serial concentration of SNA-115 in methanol were added to the wells and cultured for 72 hrs. and cultured further 4 hrs. after the addition of 10 μl of 2.5 mg/ml MTT solution to produce formazan. The cultured mixture was centrifuged at 2,000 rpm for 2 min., the supernatant was removed, 100 μl of DMSO was added to the residue and the absorption at 540 nm was determined by an immunoreader. The cell proliferation inhibitory activity of samples was obtained from comparison of their ratios to that of control group.

[28] = test system: Human epidermoid carcinoma (oral) KB cells; assay: Cytotoxicity, cell proliferation (MTT); format: cell-based; conditions: 72 hrs culture
Description: as §2

[29] = Solubility in solvents; conditions: organic solvents and water, qualitative
[30] = ( ) indicates partial inhibition

For `CC[C@H](C)[C@H](NC(=O)[C@H](Cc1ccccc1)NC(=O)[C@@H](NC(=O)[C@H](Cc1c[nH]cn1)NC(=O)CNC(=O)CNC(=O)[C@H](Cc1ccccc1)NC(=O)[C@H](CC(C)C)NC(=O)[C@@H](N)CC(=O)NCC(=O)N[C@@H](Cc1ccc(O)cc1)C(=O)N1CCC[C@H]1C(=O)N[C@@H](Cc1c[nH]c2ccccc12)C(=O)N[C@@H](Cc1c[nH]c2ccccc12)C(=O)N[C@@H](CC(=O)O)C(=O)N[C@@H](Cc1ccc(O)cc1)C(=O)N[C@@H](CCCNC(=N)N)C(=O)O)[C@@H](C)O)C(=O)N[C@@H](CO)C(=O)N1CCC[C@H]1C(=O)O` [SNA-115T] (I: H-DLFGGHTFISP-OH / II: GYPWWDYR-OH; amide I:1-II:N), the Inhibition zone [1] was 0 mm, the IC50 [2] was 1300 nM and the inhibitory pattern [2] was “competitive inhibition”. The Ki [2] was 475 nM and 480 nM, the Inhibition zone [3] was 0 mm and the Inhibition zone [4] was 0 mm. For the same compound, the Inhibition zone [5] was 0 mm, the Inhibition zone [6] was 0 mm and the Inhibition zone [7] was 0 mm. It also gave an Inhibition zone ([8]; paper disc, 40 μg per disc) of 0 mm, an Inhibition zone [9] of 0 mm and an Inhibition zone ([10]; paper disc, 40 μg per disc) of 0 mm. The acute toxicity [11] was ≥ 10 mg/kg.
In the case of `CC[C@H](C)[C@H](NC(=O)[C@H](Cc1ccccc1)NC(=O)[C@@H](NC(=O)[C@H](Cc1c[nH]cn1)NC(=O)CNC(=O)CNC(=O)[C@H](Cc1ccccc1)NC(=O)[C@H](CC(C)C)NC(=O)[C@@H]1CC(=O)NCC(=O)N[C@@H](Cc2ccc(O)cc2)C(=O)N2CCC[C@H]2C(=O)N[C@@H](Cc2c[nH]c3ccccc23)C(=O)N[C@@H](Cc2c[nH]c3ccccc23)C(=O)N[C@@H](CC(=O)O)C(=O)N[C@@H](Cc2ccc(O)cc2)C(=O)N[C@@H](CCCNC(=N)N)C(=O)N1)[C@@H](C)O)C(=O)N[C@@H](CO)C(=O)N1CCC[C@H]1C(=O)O` [SNA-115] (GYPWWDYRDLFGGHTFISP-OH; lactam N-9), the Inhibition zone [1] is reported as 0 mm, the inhibitory pattern [2] is reported as “competitive inhibition” and the Inhibition zone [3] is reported as 10.6 mm and 16.8 mm. The “Inhibition zone, partial inhibition (value in parentheses)” value [3, 30] was 15.2 mm, the Inhibition zone [4] was 0 mm and the Inhibition zone [5] was 14.5 mm and 13.8 mm. For the same compound, the Inhibition zone [6] was 0 mm, the Inhibition zone [7] was 0 mm and the Inhibition zone [8] was 11.5 mm. The “Inhibition zone (class symbol)” value [8] was “+ (key: + indicates inhibitory zone diameter of 10 mm or less)”, the Inhibition zone [9] was 0 mm and the “Inhibition zone, partial inhibition (value in parentheses)” value [9, 30] was 15.2 mm. For the same compound, the Inhibition zone [12] was 0 mm, the Inhibition zone [13] was 0 mm and the Inhibition zone [14] was 0 mm. For the same compound, the Inhibition zone [15] was 0 mm, the Inhibition zone [16] was 0 mm and the Inhibition zone [17] was 0 mm. It also gave an Inhibition zone [18] of 0 mm, an Inhibition zone [19] of 0 mm and an Inhibition zone [20] of 0 mm. It also gave an Inhibition zone [21] of 0 mm, an Inhibition zone [22] of 0 mm and an Inhibition zone [23] of 0 mm. For the same compound, the Inhibition zone [24] was 0 mm, the Inhibition zone [25] was 0 mm and the Inhibition zone [26] was 0 mm. The Inhibition zone [10] was 0 mm, the “IC50 against cell proliferation” value [27] was > 1,000 μg/ml and the “IC50 against cell proliferation” value [28] was > 1,000 μg/ml.
For `CC[C@H](C)[C@H](NC(=O)[C@H](Cc1ccccc1)NC(=O)[C@@H](NC(=O)[C@H](Cc1cnc[nH]1)NC(=O)CNC(=O)CNC(=O)[C@H](Cc1ccccc1)NC(=O)[C@H](CC(C)C)NC(=O)[C@@H]1CC(=O)NCC(=O)N[C@@H](Cc2ccc(O)cc2)C(=O)N2CCC[C@H]2C(=O)N[C@@H](Cc2c[nH]c3ccccc23)C(=O)N[C@@H](Cc2c[nH]c3ccccc23)C(=O)N[C@@H](CC(=O)O)C(=O)N[C@@H](Cc2ccc(O)cc2)C(=O)N[C@@H](CCCNC(=N)N)C(=O)N1)[C@@H](C)O)C(=O)N[C@@H](CO)C(=O)N1CCC[C@H]1C(=O)O` [SNA-115] (GYPWWDYRDLFGGHTFISP-OH; lactam N-9), the Solubility [29] was “Soluble in methanol, dimethylsulfoxide, butanol and ethanol, and insoluble in acetonitrile, chloroform, acetone and water”, the IC50 [2] was 1130 nM and 1100 nM and the Ki [2] was 697 nM and 700 nM. For the same compound, the acute toxicity [11] was ≥ 10 mg/kg.
